According to PubChem BioAssay AID328 (DTP/NCI, 2004):
Inconclusive results and toxic doses are left out. Rule for the calls: active = survival T/C of 150% or more; inactive = T/C below 125% in these data.

Tested on: BDF1 mice, P388 leukemia ip, median survival T/C
Test: NCI In Vivo Anticancer Drug Screen. Data for tumor model P388 Leukemia (intraperitoneal) in B6D2F1 (BDF1) mice
Settings: endpoint: median survival time, higher = longer survival
Outline: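 Transplantable tumour in mice; compound vs vehicle dosing; survival scored; ratio of treated to control reported.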

[1] = dose: 50.0 mg/kg/injection, schedule: Q01DX005 (ip), vehicle: saline with Tween-80
[2] = dose: 25.0 mg/kg/injection, schedule: Q01DX009 (ip), vehicle: saline with Tween-80
[3] = dose: 50.0 mg/kg/injection, schedule: Q01DX009 (ip), vehicle: saline with Tween-80
[4] = dose: 100.0 mg/kg/injection, schedule: Q01DX009 (ip), vehicle: saline with Tween-80
[5] = dose: 200.0 mg/kg/injection, schedule: Q01DX009 (ip), vehicle: saline with Tween-80
[6] = dose: 12.5 mg/kg/injection, schedule: Q01DX009 (ip), vehicle: Klucel (hydroxypropylcellulose) (HPC)
[7] = dose: 25.0 mg/kg/injection, schedule: Q01DX009 (ip), vehicle: Klucel (hydroxypropylcellulose) (HPC)
[8] = dose: 50.0 mg/kg/injection, schedule: Q01DX009 (ip), vehicle: Klucel (hydroxypropylcellulose) (HPC)
[9] = dose: 100.0 mg/kg/injection, schedule: Q01DX009 (ip), vehicle: Klucel (hydroxypropylcellulose) (HPC)
[10] = dose: 100.0 mg/kg/injection, schedule: Q04DX003 (ip), vehicle: Klucel (hydroxypropylcellulose) (HPC)
[11] = dose: 200.0 mg/kg/injection, schedule: Q01DX009 (ip), vehicle: Klucel (hydroxypropylcellulose) (HPC)
[12] = dose: 200.0 mg/kg/injection, schedule: Q04DX003 (ip), vehicle: Klucel (hydroxypropylcellulose) (HPC)
[13] = dose: 400.0 mg/kg/injection, schedule: Q01DX009 (ip), vehicle: Klucel (hydroxypropylcellulose) (HPC)
[14] = dose: 100.0 mg/kg/injection, schedule: Q04DX003 (ip), vehicle: saline with Tween-80
[15] = dose: 200.0 mg/kg/injection, schedule: Q04DX003 (ip), vehicle: saline with Tween-80
[16] = dose: 400.0 mg/kg/injection, schedule: Q04DX003 (ip), vehicle: saline with Tween-80

Measured: T/C

Cc1cc(Br)c2nsnc2c1[N+](=O)[O-]
inactive: [1] 118 % of control | dose: 400.0 mg/kg/injection, schedule: Q01DX005 (ip), vehicle: saline with Tween-80 118 % of control

O=C(O)C1CCCN1C(=O)c1ccc(Cl)c(Cl)c1 (stereo unspecified)
inactive: [1] 100 % of control | dose: 100.0 mg/kg/injection, schedule: Q01DX005 (ip), vehicle: saline with Tween-80 93 % of control | dose: 200.0 mg/kg/injection, schedule: Q01DX005 (ip), vehicle: saline with Tween-80 99 % of control

CCOC(=O)c1ccccn1
inactive: dose: 12.5 mg/kg/injection, schedule: Q01DX009 (ip), vehicle: saline 108 % of control | [2] 112 % of control | dose: 25.0 mg/kg/injection, schedule: Q01DX009 (ip), vehicle: saline 105 % of control | [3] 121 % of control | dose: 50.0 mg/kg/injection, schedule: Q01DX009 (ip), vehicle: saline 94 % of control | [4] 105 % of control | dose: 100.0 mg/kg/injection, schedule: Q01DX009 (ip), vehicle: saline 103 % of control | [5] 110 % of control

O=C(NC(=O)c1c(F)cccc1F)Nc1nc(-c2ccccc2)cs1
inactive: [2] 93 % of control | [3] 100 % of control | [4] 90 % of control

N#CC(Nc1ccccc1)C1CC1c1ccccc1 (stereo unspecified)
inactive: [6] 90 % of control | [7] 90 % of control | [8] 90 % of control

O=C(NOCc1cc2c(cc1Cl)OCO2)c1ccc(S(=O)(=O)F)cc1
inactive: dose: 100.0 mg/kg/injection, schedule: Q01DX001 (ip), vehicle: saline sonified 104 % of control | dose: 200.0 mg/kg/injection, schedule: Q01DX001 (ip), vehicle: saline sonified 86 % of control | dose: 400.0 mg/kg/injection, schedule: Q01DX001 (ip), vehicle: saline sonified 86 % of control

Nc1nc(=S)c2ncn(C3OC(COC(=O)c4ccc([N+](=O)[O-])cc4)C(OC(=O)c4ccc([N+](=O)[O-])cc4)C3OC(=O)c3ccc([N+](=O)[O-])cc3)c2[nH]1 (stereo unspecified)
inactive: [9] 111 % of control | [10] 91 % of control | [11] 103 % of control | [12] 91 % of control

COc1ccccc1NC(=O)c1ccc(Cl)cc1Cl
inactive: [7] 116 % of control | [8] 122 % of control | [9] 122 % of control | [10] 100 % of control | [11] 104 % of control | [12] 95 % of control | [13] 104 % of control | dose: 400.0 mg/kg/injection, schedule: Q04DX003 (ip), vehicle: Klucel (hydroxypropylcellulose) (HPC) 104 % of control

O=C(O)C(=O)O.[U]
inactive: dose: 25.0 mg/kg/injection, schedule: Q04DX003 (ip), vehicle: saline with Tween-80 100 % of control

COC(=O)c1cc[nH]c1CC(=O)O
inactive: dose: 100.0 mg/kg/injection, schedule: Q01DX001 (ip), vehicle: saline with Tween-80 101 % of control | dose: 200.0 mg/kg/injection, schedule: Q01DX001 (ip), vehicle: saline with Tween-80 106 % of control | dose: 400.0 mg/kg/injection, schedule: Q01DX001 (ip), vehicle: saline with Tween-80 110 % of control

CN(C)c1ccc2c(Cl)cc(Cl)nc2c1
inactive: [6] 109 % of control | [7] 109 % of control | [8] 111 % of control | [9] 117 % of control | [11] 107 % of control

O=C(c1ccccn1)C12CC3CC(CC(C3)C1)C2
inactive: [14] 95 % of control | [15] 105 % of control | [16] 95 % of control

Cc1cc[n+](C)c2ccccc12
inactive: dose: 9.37 mg/kg/injection, schedule: Q04DX003 (ip), vehicle: saline 100 % of control | dose: 18.75 mg/kg/injection, schedule: Q04DX003 (ip), vehicle: saline 100 % of control

CCOC(=O)c1sc(NC(C)=O)c(C(=O)OCC)c1C
inactive: [9] 100 % of control | [11] 100 % of control | [13] 100 % of control

COc1cc2nccc3c4ccccc4n(c1=O)c23
inactive: dose: 100.0 mg/kg/injection, schedule: Q01DX010 (ip), vehicle: saline 90 % of control | dose: 200.0 mg/kg/injection, schedule: Q01DX010 (ip), vehicle: saline 90 % of control | dose: 400.0 mg/kg/injection, schedule: Q01DX010 (ip), vehicle: saline 95 % of control | dose: 800.0 mg/kg/injection, schedule: Q01DX010 (ip), vehicle: saline 100 % of control

O=C(O)c1c(I)c(I)c(I)c(I)c1C(=O)c1ccccc1
inactive: dose: 44.0 mg/kg/injection, schedule: Q04DX003 (ip), vehicle: saline 109 % of control | dose: 67.0 mg/kg/injection, schedule: Q04DX003 (ip), vehicle: saline with Tween-80 104 % of control | dose: 67.0 mg/kg/injection, schedule: Q04DX003 (ip), vehicle: saline 104 % of control | [4] 111 % of control | [14] 104 % of control | dose: 100.0 mg/kg/injection, schedule: Q04DX003 (ip), vehicle: saline 118 % of control | dose: 150.0 mg/kg/injection, schedule: Q04DX003 (ip), vehicle: saline with Tween-80 109 % of control | dose: 150.0 mg/kg/injection, schedule: Q04DX003 (ip), vehicle: saline 113 % of control | [5] 111 % of control | [15] 110 % of control | [16] 120 % of control
